Reference: PubChem BioAssay (NCI)
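Where inhibition never reached the appropriate level, the endpoint shown equals the highest concentration tested. Otherwise, values were interpolated linearly from a five-concentration, 48-hour dose response in 96-well plates. TGI: total growth inhibition.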

How the values were obtained:
Assay in all cases: inhibition of tumour cell growth, NCI panel, 48 h
786-0 renal = tested on: 786-0 renal
A498 renal = tested on: A498 renal
A549 NSCLC = tested on: A549 NSCLC
ACHN renal = tested on: ACHN renal
CAKI-1 renal = tested on: CAKI-1 renal
CCRF-CEM leukemia = tested on: CCRF-CEM leukemia
COLO 205 colon = tested on: COLO 205 colon
DLD-1 colon = tested on: DLD-1 colon
DMS 273 small cell lung = tested on: DMS 273 small cell lung
EKVX NSCLC = tested on: EKVX NSCLC
HCT-15 colon = tested on: HCT-15 colon
HL-60(TB) leukemia = tested on: HL-60(TB) leukemia
HOP-18 NSCLC = tested on: HOP-18 NSCLC
HOP-92 NSCLC = tested on: HOP-92 NSCLC
HT29 colon = tested on: HT29 colon
IGROV1 ovarian = tested on: IGROV1 ovarian
K-562 leukemia = tested on: K-562 leukemia
KM12 colon = tested on: KM12 colon
KM20L2 colon = tested on: KM20L2 colon
LOX IMVI melanoma = tested on: LOX IMVI melanoma
LXFL 529 NSCLC = tested on: LXFL 529 NSCLC
M14 melanoma = tested on: M14 melanoma
M19-MEL melanoma = tested on: M19-MEL melanoma
MALME-3M melanoma = tested on: MALME-3M melanoma
MOLT-4 leukemia = tested on: MOLT-4 leukemia
NCI-H23 lung = tested on: NCI-H23 lung
NCI-H460 lung = tested on: NCI-H460 lung
NCI-H522 lung = tested on: NCI-H522 lung
OVCAR-3 ovarian = tested on: OVCAR-3 ovarian
OVCAR-4 ovarian = tested on: OVCAR-4 ovarian
OVCAR-5 ovarian = tested on: OVCAR-5 ovarian
OVCAR-8 ovarian = tested on: OVCAR-8 ovarian
RPMI-8226 leukemia = tested on: RPMI-8226 leukemia
RXF 393 renal = tested on: RXF 393 renal
RXF-631 renal = tested on: RXF-631 renal
SF-268 CNS = tested on: SF-268 CNS
SF-295 CNS = tested on: SF-295 CNS
SF-539 CNS = tested on: SF-539 CNS
SK-MEL-2 melanoma = tested on: SK-MEL-2 melanoma
SK-MEL-28 melanoma = tested on: SK-MEL-28 melanoma
SK-MEL-5 melanoma = tested on: SK-MEL-5 melanoma
SK-OV-3 ovarian = tested on: SK-OV-3 ovarian
SN12C renal = tested on: SN12C renal
SNB-19 CNS = tested on: SNB-19 CNS
SNB-75 CNS = tested on: SNB-75 CNS
SW-620 colon = tested on: SW-620 colon
TK-10 renal = tested on: TK-10 renal
U251 CNS = tested on: U251 CNS
UACC-62 melanoma = tested on: UACC-62 melanoma
UO-31 renal = tested on: UO-31 renal
XF 498 CNS = tested on: XF 498 CNS
DMS 114 small cell lung = tested on: DMS 114 small cell lung
HCC-2998 colon = tested on: HCC-2998 colon
HCT-116 colon = tested on: HCT-116 colon
HOP-62 NSCLC = tested on: HOP-62 NSCLC
NCI-H226 lung = tested on: NCI-H226 lung
SNB-78 CNS = tested on: SNB-78 CNS
UACC-257 melanoma = tested on: UACC-257 melanoma

SMILES: CCCCCCCCSC(=O)NCCCC
- TGI (786-0 renal): > 100 µM
- TGI (A498 renal): > 100 µM
- TGI (A549 NSCLC): > 100 µM
- TGI (ACHN renal): > 100 µM
- TGI (CAKI-1 renal): > 100 µM
- TGI (CCRF-CEM leukemia): > 100 µM
- TGI (COLO 205 colon): > 100 µM
- TGI (DLD-1 colon): > 100 µM
- TGI (DMS 273 small cell lung): > 100 µM
- TGI (EKVX NSCLC): 75.4 µM
- TGI (HCT-15 colon): 96.8 µM
- TGI (HL-60(TB) leukemia): 41.3 µM
- TGI (HOP-18 NSCLC): > 100 µM
- TGI (HOP-92 NSCLC): 53.9 µM
- TGI (HT29 colon): 66.6 µM
- TGI (IGROV1 ovarian): > 100 µM
- TGI (K-562 leukemia): > 100 µM
- TGI (KM12 colon): > 100 µM
- TGI (KM20L2 colon): 62.5 µM
- TGI (LOX IMVI melanoma): 40.2 µM
- TGI (LXFL 529 NSCLC): > 100 µM
- TGI (M14 melanoma): 79 µM
- TGI (M19-MEL melanoma): > 100 µM
- TGI (MALME-3M melanoma): 68.5 µM
- TGI (MOLT-4 leukemia): 87 µM
- TGI (NCI-H23 lung): > 100 µM
- TGI (NCI-H460 lung): > 100 µM
- TGI (NCI-H522 lung): 80.4 µM
- TGI (OVCAR-3 ovarian): > 100 µM
- TGI (OVCAR-4 ovarian): > 100 µM
- TGI (OVCAR-5 ovarian): > 100 µM
- TGI (OVCAR-8 ovarian): > 100 µM
- TGI (RPMI-8226 leukemia): 57.9 µM
- TGI (RXF 393 renal): 69.3 µM
- TGI (RXF-631 renal): > 100 µM
- TGI (SF-268 CNS): > 100 µM
- TGI (SF-295 CNS): > 100 µM
- TGI (SF-539 CNS): > 100 µM
- TGI (SK-MEL-2 melanoma): 45.6 µM
- TGI (SK-MEL-28 melanoma): 88.7 µM
- TGI (SK-MEL-5 melanoma): 46.6 µM
- TGI (SK-OV-3 ovarian): > 100 µM
- TGI (SN12C renal): > 100 µM
- TGI (SNB-19 CNS): > 100 µM
- TGI (SNB-75 CNS): 84.7 µM
- TGI (SW-620 colon): > 100 µM
- TGI (TK-10 renal): > 100 µM
- TGI (U251 CNS): > 100 µM
- TGI (UACC-62 melanoma): > 100 µM
- TGI (UO-31 renal): 51.6 µM
- TGI (XF 498 CNS): 47.2 µM

SMILES: CCCCC(C(=O)C(=O)Nc1ccc(C)cc1C)C(=O)C(C)C (stereo not given)
- TGI (786-0 renal): > 100 µM
- TGI (A498 renal): > 100 µM
- TGI (A549 NSCLC): > 100 µM
- TGI (ACHN renal): > 100 µM
- TGI (CAKI-1 renal): > 100 µM
- TGI (DLD-1 colon): > 100 µM
- TGI (DMS 114 small cell lung): > 100 µM
- TGI (DMS 273 small cell lung): > 100 µM
- TGI (EKVX NSCLC): > 100 µM
- TGI (HCC-2998 colon): > 100 µM
- TGI (HCT-116 colon): > 100 µM
- TGI (HCT-15 colon): > 100 µM
- TGI (HL-60(TB) leukemia): > 100 µM
- TGI (HOP-18 NSCLC): > 100 µM
- TGI (HOP-62 NSCLC): > 100 µM
- TGI (HOP-92 NSCLC): > 100 µM
- TGI (HT29 colon): > 100 µM
- TGI (IGROV1 ovarian): > 100 µM
- TGI (K-562 leukemia): > 100 µM
- TGI (KM12 colon): > 100 µM
- TGI (KM20L2 colon): > 100 µM
- TGI (LOX IMVI melanoma): > 100 µM
- TGI (LXFL 529 NSCLC): > 100 µM
- TGI (M14 melanoma): > 100 µM
- TGI (M19-MEL melanoma): > 100 µM
- TGI (MALME-3M melanoma): > 100 µM
- TGI (MOLT-4 leukemia): > 100 µM
- TGI (NCI-H226 lung): > 100 µM
- TGI (NCI-H23 lung): > 100 µM
- TGI (NCI-H460 lung): > 100 µM
- TGI (OVCAR-3 ovarian): > 100 µM
- TGI (OVCAR-4 ovarian): > 100 µM
- TGI (OVCAR-5 ovarian): > 100 µM
- TGI (OVCAR-8 ovarian): > 100 µM
- TGI (RPMI-8226 leukemia): > 100 µM
- TGI (RXF 393 renal): > 100 µM
- TGI (RXF-631 renal): > 100 µM
- TGI (SF-268 CNS): > 100 µM
- TGI (SF-295 CNS): > 100 µM
- TGI (SF-539 CNS): > 100 µM
- TGI (SK-MEL-2 melanoma): > 100 µM
- TGI (SK-MEL-28 melanoma): > 100 µM
- TGI (SK-MEL-5 melanoma): > 100 µM
- TGI (SN12C renal): > 100 µM
- TGI (SNB-19 CNS): > 100 µM
- TGI (SNB-75 CNS): > 100 µM
- TGI (SNB-78 CNS): > 100 µM
- TGI (SW-620 colon): > 100 µM
- TGI (TK-10 renal): > 100 µM
- TGI (U251 CNS): > 100 µM
- TGI (UACC-257 melanoma): > 100 µM
- TGI (UACC-62 melanoma): > 100 µM
- TGI (UO-31 renal): > 100 µM
- TGI (XF 498 CNS): > 100 µM
